Patent US20230193262A1, “Nucleic acid molecules capable of modulating target gene expression and uses thereof” (KOREA ADVANCED INSTITUTE OF SCIENCE AND TECHNOLOGY, priority 2021, published 2023)
Entries after “also recorded” stand apart in the source; their conditions may differ. In the oligonucleotide strings, read from the 5' end, every base follows the letter of its sugar. An asterisk marks phosphorothioate; unmarked linkages are phosphodiester. Other units and linkages are bracketed, terminal groups are in braces. A string of capitals states the bases alone. d = 2'-deoxy (DNA)

Key:
[1] = system: Hela cells; assay: Cell viability / apoptosis (CCK-8) in Hela cells; assay type: cell-based
Procedure: (§1) The miRNA triggers were assayed for cytotoxicity and apoptosis induction, using the CCK-8 (Cell Counting Kit-8) (Dojindo, Kumamoto, Japan) according to the manufacturer's instruction. Cells were incubated in 96-well plates (5×10^3 cells/well) at 37° C. for 24 hours under a 5% CO2 atmosphere, followed by transfection. Three days after transfection, the medium was removed. A 10-fold dilution of CCK-8 solution in DMEM was added to the cells which were then incubated at 37° C. for 2 hours. After incubation, absorbance was read at 450 nm on Tecan Infinite M200 pro microplate reader (Mnnedorf, Switzerland).
(§2) The linear miRNA triggers or siRNAs (siLuc and siMcl-1) prepared above were transfected into Hela, Hela-141, and Hela-200c cells which were then measured for cell viability. The results are depicted in FIG. 15.
(§3) The hairpin miRNA triggers prepared above were transfected into Hela and Hela-141 cells which were then assayed for apoptosis. As a control, the siRNA (siMcl-1; Table 14) which can repress the expression of mcl-1 was transfected to Hela and Hela-141 cells and measured for apoptotic activity.

[2] = system: Hela-141 cells; assay: Cell viability / apoptosis (CCK-8) in Hela-141 cells; assay type: cell-based; conditions: for apoptosis induced: Hela-141 cells (express miR-141); for apoptosis / cell viability: Hela-141 cells
Procedure: as §1, §2, §3

[3] = system: MCF-7 breast cancer cells; assay: Cell viability / apoptosis in MCF-7; assay type: cell-based; conditions: single siRNA, final concentration 60 nM
Procedure: as §1
An siRNA targeting bcl-2, bcl-xL, or mcl-1 was transfected into MCF-7 breast cancer cells and PANC-1 pancreatic cancer cells. By using qRT-PCR, establishment was made of a condition under which the expression of each target gene is decreased by 80% or more (transfection was performed at a concentration of 60 nM with the aid of Lipofectamine). As a negative control, a Luc (Luciferase)-targeting siRNA (siLuc) was used. Under the same condition of decreasing the expression of each target gene by 80% or more, the cells transfected with the siRNAs were measured for apoptosis, and the results are depicted in FIGS. 14a and 14b.
Linear miRNA triggers that could bind to miR-141 or let7f and target bcl-xL or mcl-1 were prepared and transfected alone or in combination into the breast cancer cell line MCF-7 which was then measured for cell viability. Every nucleotide of the triggers and controls was chemically modified with 2′-OMe.
First, MCF-7 was measured for cell viability after treatment with siMCL-1, siBCL-xL, and siBCL-2 (FIG. 48). […] The final concentration of the siRNAs was 60 nM.
Next, examination was made of the apoptosis when two or more genes were regulated together. MCF-7 was measured for cell viability after treatment with siMCL-1+siBCL-xL, siMCL-1+siBCL-2, siBCL-xL+siBCL-2, and siMCL-1+siBCL-xL+siBCL-2 (FIG. 49).
Finally, experiments under all the conditions (individual and simultaneous regulation) were conducted simultaneously so as to compare effects thereof. […]

[4] = system: cells; assay: Cytotoxicity (CCK-8 cell viability) of chemically modified miRNA triggers; assay type: cell-based
Procedure: as §1
In addition, FPS HP and 2′-OMe HP, which were the most resistant to degradation in biological samples, were analyzed for cytotoxicity. In this regard, the HP in which the entire nucleotides of miRNA trigger (LP) were modified with PS (expressed as PS in Table 6 and FIG. 6), the linear probe in which the entire nucleotides of miRNA trigger (LP) were modified with 2′-O-Me (expressed as 2′O-me in Table 6 and FIG. 6), the control DNA LP (expressed as DNA in Table 6 and FIG. 6), or siRNA was transfected into cells which were then measured for cell viability using the method of Reference Example 9. The result is depicted in FIG. 6. […]

[5] = system: GFP mRNA; assay: GFP fluorescence intensity in GFP-expressing Hela-141 cells; assay type: cell-based; conditions: siGFP compared to siLuc, trigger 30 to 60 nM
Description: A GFP fluorescent protein-expressing plasmid (used in Chen L L, DeCerbo J N, Carmichael G G. 2008. Alu element-mediated gene silencing. EMBO J 27: 1694-1705) was transfected into Hela-141 cells to prepare GFP-expressing Hela-141 cells. As stated in Reference Example 1, a linear miRNA trigger (LP; GFP_141_141), which can target GFP mRNA (=complementarily bind to GFP mRNA to regulate the expression of GFP) and complementarily bind to miR-141, and siRNAs which target GFP and Luc (Luciferase), respectively, were synthesized in Bioneer Inc. Sequences of the LP and siRNAs and types and positions of chemical modifications in each sequence are listed in Table 8, below.
Above all, siLuc and siGFP were transfected into the GFP-expressing Hela-141 cells which were then measured for fluorescence intensity on an ELISA reader. […] In addition, the linear miRNA trigger (GFP(1)_141_141) was transfected into the GFP-expressing Hela-141 cells which were then measured for fluorescence intensity. The result is depicted in FIG. 8. For the transfection, the GFP plasmid and GFP_141_141 were used at a concentration of 0.5 to 1 μg/ml and 30 to 60 nM, respectively.

[6] = system: Hela-200c cells; assay: Cell viability / apoptosis (CCK-8) in Hela-200c cells; assay type: cell-based
Procedure: as §1, §2

[7] = system: miR-155; assay: miR-155 expression after treatment with AML therapeutic agents; assay type: cell-based; conditions: FLT3-ITD mutated AML cell line (NOLM-14); IC50 dose, 37° C., 72 hours
Procedure: The FLT3-ITD mutated AML cell line (NOLM-14) was treated with an IC50 dose of cytarabine, azacitidine, decitabine, venetoclax, or gilteritinib, which is used as standard therapeutic agents for AML, at 37° C. for 72 hours, followed by measuring expression levels of miR-155.

[8] = system: miRNA-141 and PKR mRNA (2); assay: PAGE binding of dumbbell miRNA trigger to miRNA and target mRNA; conditions: for binding to miRNA and/or target mRNA: 100 nM each, 37° C., 1 hour, miRNA present
Procedure: To a buffer (1×PBS buffer, +5 mM MgCl2, 137 mM NaCl, 10 mM PO4, 2.7 mM KCl, 5 mM MgCl2; pH 7.4) containing 100 nM of the dumbbell miRNA trigger (DP) prepared above, 100 nM miRNA and/or 100 nM target mRNA was added, followed by incubation at 37° C. for 1 hour. Each sample was loaded to a PAGE gel and run. The results are depicted in FIG. 39b.

In the case of “HP Mcl-1(3)_141: hairpin miRNA trigger binding miR-141 and targeting mcl-1; SEQ ID NO 68 (CGAAGGAAGUAUCGCCAUCUUUACCAGACAGUGUUACGAUACUUCCUUCG; all 2'-O-methyl, backbone not given here)”, the “apoptosis / cell viability” value [1] is reported as “did not lead Hela cells to death at all” and the apoptosis induced [2] is reported as “about 40%”.

In the case of “HP Mcl-1(1)_141: hairpin miRNA trigger binding miR-141 and targeting mcl-1; SEQ ID NO 67 (GCUACGUAGUUCGGCCAUCUUUACCAGACAGUGUUACCGAACUACGUAGC; all 2'-O-methyl, backbone not given here)”, the “apoptosis / cell viability” value [1] is reported as “did not lead Hela cells to death at all” and the apoptosis induced [2] is reported as “about 40%”.

With “siBcl-xL: siRNA targeting bcl-xL; SEQ ID NO 63 (UUGGUCCCUCAGUAUGGUC; listed as RNA, chemistry not given here)” the “apoptosis (cell viability)” value [3] was “apoptosis was detected”.

With “2′-O-Me: linear probe, entire nucleotides modified with 2′-O-Me; SEQ ID NO 38 (UCGAAGUACUCAGCGUAAGUUCGAAGUACUCAGCGUAAGUUCGAAGUACUCAGCGUAAGU; all 2'-O-methyl, backbone not given here)” the “cell viability versus non-transfected negative control (NT)” value ([4]; CCK-8) was “not significantly different in viability from the negative control”.

With “siGFP: siRNA which targets GFP; SEQ ID NO 44 (UUAUGUUUCAGGUUCAGGG; RNA, backbone not given here) [reference compound]” the GFP fluorescence intensity [5] was “significantly reduced fluorescence intensity”.

With “PS: miRNA trigger (LP), entire nucleotides modified with PS, random sequences; SEQ ID NO 37 (dT*dC*dG*dA*dA*dG*dT*dA*dC*dT*dC*dA*dG*dC*dG*dT*dA*dA*dG*dT*dT*dC*dG*dA*dA*dG*dT*dA*dC*dT*dC*dA*dG*dC*dG*dT*dA*dA*dG*dT*dT*dC*dG*dA*dA*dG*dT*dA*dC*dT*dC*dA*dG*dC*dG*dT*dA*dA*dG*dT)” the cell viability ([4]; transfected cells, CCK-8, random sequences) was “less than 40%”.

“siMcl-1: siRNA targeting mcl-1; SEQ ID NO 64 (AAAUUCGAUACUUCCUUCG; listed as RNA, chemistry not given here) [reference compound]” was tested, and the “apoptosis / cell viability” value [1] was “induced apoptosis; also recorded: apoptotic effect”, the “apoptosis / cell viability” value [2] was “induced apoptosis; also recorded: apoptotic effect” and the “apoptosis / cell viability” value [6] was “induced apoptosis”. For the same molecule, the “apoptosis (cell viability)” value [3] was “apoptosis was detected; also recorded: greatest apoptosis”.

With Nc1ncn([C@@H]2O[C@H](CO)[C@@H](O)[C@H]2O)c(=O)n1 [azacitidine] the miR-155 expression [7] was “did not repress miR-155 express”.

In the case of Nc1ccn([C@@H]2O[C@H](CO)[C@@H](O)[C@@H]2O)c(=O)n1 [cytarabine], the miR-155 expression [7] is reported as “did not repress miR-155 express”.

With “Mcl-1-200c-200c: linear miRNA trigger binding miR-200c and targeting mcl-1; SEQ ID NO 66 (Table 25: 111) (UCCAUCAUUACCGCGCAGUAUUAUCCAUCAUUACCGCGCAGUAUUACCGAACUACGUAGC; all 2'-O-methyl, backbone not given here)” the “apoptosis / cell viability” value [2] was “no significant influence on cell viability” and the apoptosis induced [6] was “up to 40%”.

B1: GFP(1)_141_141: linear miRNA trigger targeting GFP mRNA and binding miR-141; SEQ ID NO 41 (nucleic acid)
chain: CCAUCUUUACCUCACAGUGUUACCAUCUUUACCUCACAGUGUUAUUAUGUUUCAGGUUCAGGGGGA
modifications: all 2'-O-methyl, backbone not given here
In the case of B1, the GFP fluorescence intensity [5] is reported as “reduced GFP fluorescence intensity in a dose-dependent manner”.

B2: dumbbell miRNA trigger: dumbbell-shaped miRNA trigger, mRNA-binding portion about 20 nt, C12 spacer; SEQ ID NO 130 (nucleic acid)
chain: CCCCCCGAATGAGAAATACCATCTTTACCAGACAGTGTTATATTTCTCATTCCCTTCCTTNNAAGGAAGGGGGGGG
modifications: C12 spacer, chemistry not fully specified
In the case of B2, the “binding to miRNA and/or target mRNA” value [8] is reported as “could bind to a miRNA and/or target mRNA only in the presence of the miRNA”, the “binding to miRNA and/or target mRNA” value ([8]; listed as DB HP) is reported as “opened its structure and formed a ternary complex” and the “binding to target mRNA” value ([8]; absence of the miRNA) is reported as “did not bind to a target mRNA in the absence of the miRNA”.
